Assays:
rats (male and female) = assay: Single dose (acute) toxicity study in rats; format: in vivo
Description: The single-dose (acute) toxicity study was carried out with different groups of rats and mice (male and female) and according to the procedures recommended by OECD (2001) and ANVISA (2013).
After a 6 h-fasting period, the animals' body weight was determined, and the dose of the synthetic CBD was calculated. Two single doses (1000 and 2000 mg/kg) of synthetic CBD were administered orally (with the aid of a gavage probe) and intraperitoneally in different groups of rats and mice (male and female). Other different groups of rodents were treated with placebo and were considered as control groups.
The animals were carefully observed for any toxicity signs within the first eight hours after treatment, and daily for a period of 14 days. On the 15th day all animals were euthanized, and the respective anatomopathological investigations were performed on the 15th day after the treatments.

[1] = test system: DNA of male and female rats; conditions: rats male and female, 500, 1000 and 2000 mg/kg orally, 48 hours, peripheral blood
Description: The negative control group received placebo by gavage and the positive control was treated with cyclophosphamide monohydrate (20 mg/kg—Sigma-Aldrich) intraperitoneally.

male rabbits = assay: Electrocardiography; format: in vivo, New Zealand rabbits; conditions: male rabbits, 17, 51 and 170 mg/kg by gavage, one hour after treatment
Description: Male New Zealand rabbits (n=6 per group) were used for pharmacological safety tests. All tests were performed orally (route recommended for humans) and the investigated parameters were determined after a single administration of CBD-SINT. CBD-SINT doses were determined by allometric extrapolation from the average dose used in human patients (25 mg/kg).
The dose of 51 mg/kg was used as the intermediate dose, stipulating a higher and a lower dose. Three dose ranges were used according to the Guide for Conducting Non-Clinical Toxicology and Pharmacological Safety Studies Necessary for Drug Development (ANVISA, 2013; Version 1.2). Thus, the doses used were 17, 51 and 170 mg/kg of CBD-SINT.
a) Electrocardiography, wherein after a 6-h fasting, three doses of CBD (17, 51 and 170 mg/kg) were administered to different groups of male rabbits by gavage. Placebo was administered to the control group (1 mL/kg). One hour after treatments, all rabbits remained conscious in the supine position. Four electrodes (RL, RA, LL, and LA) were placed in the folds of both elbows and both knees. The V1 electrode was positioned in the 4th intercostal space to the right of the sternum. […] An acclimatization time of 5 min was waited, and then the cardiographic electric waves were recorded for 5 min. The electrocardiography was recorded with an ECG recorder (WinCardio, Micromed, Brasilia, Brazil).

[2] = test system: rats with MPTP microinfusion into the substantia nigra; assay: Morris water maze (cued test/memory version), MPTP model; format: in vivo; conditions: 36 and 120 mg/kg orally, day 1 to day 10 after MPTP
Description: For the experiments with MPTP (neuroprotection), the animals were divided into the following experimental groups: • MPTP+placebo • MPTP+CBD-SINT 12 mg/kg • MPTP+CBD-SINT 36 mg/kg • MPTP+CBD-SINT 120 mg/kg • Sham+placebo • Naive
CBD-SINT and placebo were administered orally (gavage) for 18 days prior to the administration of the neurotoxin by stereotactic surgery, and for another 10 days after surgery. After the administration of the neurotoxin, the behavioral (locomotor activity) and biochemical (brain dopamine dosage) parameters were evaluated after 24 hours and after 10 days. The memory tests (Morris water maze) were performed daily from day 1 to day 10 after the administration of the neurotoxin (FIG. 13).
The rats were submitted to stereotactic surgery (stereotactic—David Kopf, model 957L) and received bilateral microinfusion of MPTP or 6-OHDA (different groups of rats) directly into the substantia nigra. For surgery, the following stereotaxic coordinates were used: anteroposterior: 5.0 mm from the bregma; mediolateral: ±2.1 mm from the midline and dorsoventral: −7.7 mm from the cranial vault (Paxinos and Watson, 1986). Then, 100 μg MPTP (diluted in 1 μL saline, with a flow of 0.33 μL/min) or 8 μg 6-OHDA (diluted in 2 μL saline with 0.2 μg/μL ascorbic acid, with a flow rate of 0.33 μL/min) were injected. […]

[3] = 1000 mg/kg and 2000 mg/kg intraperitoneally, single dose

Compound: C=C(C)[C@@H]1CCC(C)=C[C@H]1c1c(O)cc(CCCCC)cc1O [CBD-SINT, Cannabidiol]
- abdominal contortions during the first 8 hours (rats (male and female); [3]): occasional abdominal contortions
- activity during the first 8 hours of observation (rats (male and female); [3]): significant decrease in its activity
- daily feed and water consumption compared to placebo (rats (male and female); 1000 and 2000 mg/kg, oral or intraperitoneal): no change
- final body weight and body weight gains vs placebo (rats (male and female); 1000 and 2000 mg/kg, oral or intraperitoneal, 14 days): similar
- appearance and general behavior pattern until the end of the 14-days observation (rats (male and female); 1000 and 2000 mg/kg, oral or intraperitoneal, after the first 8 h): no significant changes
- absolute (g) or relative (%) weight of all organs vs placebo (rats (male and female); after 14 days): no significant differences
- histopathological analyzes (rats (male and female); day 15): no significant changes
- macroscopic examination of vital organs (rats (male and female); day 15): did not disclose any abnormalities
- deaths (LD50 not set forth) (rats (male and female); doses up to 2000 mg/kg orally or intraperitoneally, 14 days): no deaths were observed
- DNA damage (Damage Index and Damage Frequency) vs negative control (placebo) [1]: none of the tested doses of CBD-SINT induced any significant changes
- PR, QRS or QT segments (male rabbits): no significant changes
- amplitudes of P, R or T waves vs placebo (male rabbits): no changes
- latency time to find the platform (memory deficit) [2]: prevented this deficit

— patent publication US11389423B2, “Pharmaceutical composition, excipient for the composition and use of the composition” (priority 2018, dated 2022)
